In patent publication US6686393B1, “Pharmaceutical compositions having antiviral activity against human cytomegalovirus” (Murdock International Corporation, priority 1990, dated 2004):
Entries after “also recorded” stand apart in the source; their conditions may differ. Like-named read-outs stand apart in the source and are kept apart here.

Columns and labels:
[1] = test system: human cytomegalovirus (HCMV), strain AD-169; experiment: Antiviral test (plaque reduction) versus HCMV, strain AD-169, in MRC-5 cells; assay type: cell-based; conditions: for inhibition at 0.01 µg/mL: Human betaherpesvirus 5, AD169, MRC5, 0.01 μg/ml; for inhibition at 0.032 µg/mL: Human betaherpesvirus 5, AD169, MRC5, 0.032 μg/ml; for inhibition at 0.1 µg/mL: Human betaherpesvirus 5, AD169, MRC5, 0.1 μg/ml; for inhibition at 0.32 µg/mL: Human betaherpesvirus 5, AD169, MRC5, 0.32 μg/ml; for inhibition at 1 µg/mL: Human betaherpesvirus 5, AD169, MRC5, 1.0 μg/ml; for inhibition at 10 µg/mL: Human betaherpesvirus 5, AD169, MRC5, 10 μg/ml
[2] = test system: MRC-5 cells
[3] = test system: HCMV, strain C8805-37 (DHPG-resistant); experiment: microbe, parasite or virus in culture; assay type: cell-based, human cytomegalovirus; conditions: for inhibition at 0.01 µg/mL / inhibition at 0.032 µg/mL / inhibition at 0.1 µg/mL / inhibition at 0.32 µg/mL / inhibition at 1 µg/mL / inhibition at 3.2 µg/mL: Human betaherpesvirus 5, MRC5, read-out: Percent Inhibition Compared to Controls
[4] = Example 2, read-out: Percent Inhibition of Plaque Numbers (Compared to Virus Controls)
[5] = Example 1, DMSO stock, read-out: % Inhibition
[6] = Human betaherpesvirus 5, AD169, MRC5, 3.2 μg/ml, Example 2, read-out: Percent Inhibition of Plaque Numbers (Compared to Virus Controls)

Question: What does the source list for COc1cc(O)c2c(c1)C(=O)c1cc(C)cc(O)c1C2=O [Physcione, physcione]?
Answer: % Reduction ([1]; 0.01 μg/ml, Example 6): 0%; Number of Plaques ([1]; 0.01 μg/ml, Example 6): 17; % Reduction ([1]; 0.032 μg/ml, Example 6): 0%; Number of Plaques ([1]; 0.032 μg/ml, Example 6): 14; % Reduction ([1]; 0.1 μg/ml, Example 6): 0%; Number of Plaques ([1]; 0.1 μg/ml, Example 6): 19; % Reduction ([1]; 0.32 μg/ml, Example 6): 0%; Number of Plaques ([1]; 0.32 μg/ml, Example 6): 18; % Reduction ([1]; 1.0 μg/ml, Example 6): 0%; Number of Plaques ([1]; 1.0 μg/ml, Example 6): 18; % Reduction ([1]; 3.2 μg/ml, Example 6): 0%; Number of Plaques ([1]; 3.2 μg/ml, Example 6): 25; % Reduction ([1]; 10.0 μg/ml, Example 6): 0%; Number of Plaques ([1]; 10.0 μg/ml, Example 6): 31; CD50 [2]: >10 µg/mL

Question: For Cc1cc(O)c2c(c1)C(=O)c1cc(O)cc(O)c1C2=O [Emodin, emodin], which “Number of Plaques” value ([1]; 0.0032 μg/ml, Example 1, DMSO stock, average of two wells) is on record?
Answer: 79

Question: And the “Number of Plaques” value ([1]; 0.1 μg/ml, Example 1, DMSO stock, average of two wells)?
Answer: 72

Question: What about the “Number of Plaques” value ([1]; 0.32 μg/ml, Example 1, DMSO stock, average of two wells) of the same compound?
Answer: 78

Question: And the “Number of Plaques” value ([1]; 1.0 μg/ml, Example 1, DMSO stock, average of two wells)?
Answer: 22

Question: What about the “Number of Plaques” value ([1]; 3.2 μg/ml, Example 1, DMSO stock, average of two wells) of the same compound?
Answer: 0

Question: What about the “Number of Plaques” value ([1]; 10 μg/ml, Example 1, DMSO stock, average of two wells) of the same compound?
Answer: 0

Question: What about the “Percent Inhibition of Plaque Numbers (Compared to Virus Controls)” value ([1]; 10 μg/ml, Example 2, ethanol stock (protohypericin in DMSO), cells exposed 6 or more days) of the same compound?
Answer: toxic

Question: And the inhibition at 0.0032 µg/mL ([1]; Human betaherpesvirus 5, AD169, MRC5, 0.0032 μg/ml, Example 1, DMSO stock)?
Answer: 0%

Question: What about the inhibition at 0.01 µg/mL [1, 4] of the same compound?
Answer: 0%

Question: And the inhibition at 0.032 µg/mL [1, 4]?
Answer: 0%

Question: And the inhibition at 0.1 µg/mL [1, 5]?
Answer: 9%

Question: And the inhibition at 0.1 µg/mL [1, 4]?
Answer: 0%

Question: And the inhibition at 0.32 µg/mL [1, 5]?
Answer: 1%

Question: And the inhibition at 0.32 µg/mL [1, 4]?
Answer: 0%

Question: And the inhibition at 1 µg/mL [1, 5]?
Answer: 72%

Question: And the inhibition at 1 µg/mL [1, 4]?
Answer: 39%

Question: What about the inhibition at 3.2 µg/mL ([1]; Human betaherpesvirus 5, AD169, MRC5, 3.2 μg/ml, Example 1, DMSO stock, read-out: % Inhibition) of the same compound?
Answer: 100%

Question: What about the inhibition at 3.2 µg/mL [1, 6] of the same compound?
Answer: 100%

Question: What about the inhibition at 10 µg/mL [1, 5] of the same compound?
Answer: 100%

Question: What about the “Activity against HCMV” value ([1]; statement in words on the plaque reduction results) of the same compound?
Answer: show activity

Question: And the “Activity against HCMV” value ([1]; statement in words on the plaque reduction results, listed as emodin)?
Answer: anti-HCMV activity

Question: What about the CD50 ([2]; human, 4 days) of the same compound?
Answer: 3.4 µg/mL

Question: And the “Activity against DHPG resistant HCMV strain” value [3]?
Answer: retain essentially the same activity

Question: What about the “Percent Inhibition Compared to Controls” value [3] of the same compound?
Answer: toxic

Question: What about the inhibition at 0.01 µg/mL [3] of the same compound?
Answer: 0%

Question: What about the inhibition at 0.032 µg/mL [3] of the same compound?
Answer: 0%

Question: What about the inhibition at 0.1 µg/mL [3] of the same compound?
Answer: 0%

Question: What about the inhibition at 0.32 µg/mL [3] of the same compound?
Answer: 0%

Question: What about the inhibition at 1 µg/mL [3] of the same compound?
Answer: 46%

Question: What about the inhibition at 3.2 µg/mL [3] of the same compound?
Answer: 100%

Question: Which results are given for Cc1cc(O)c2c(c1)C(=O)c1cccc(O)c1C2=O [Chrysophanol, chrysophanol]?
Answer: inhibition at 0.01 µg/mL [1, 4]: 0%; inhibition at 0.032 µg/mL [1, 4]: 0%; inhibition at 0.1 µg/mL [1, 4]: 0%; inhibition at 0.32 µg/mL [1, 4]: 0%; inhibition at 1 µg/mL [1, 4]: 0%; inhibition at 3.2 µg/mL [1, 6]: 0%; inhibition at 10 µg/mL ([1]; Example 2, ethanol stock (protohypericin in DMSO), cells exposed 6 or more days, read-out: Percent Inhibition of Plaque Numbers (Compared to Virus Controls)): 0%; CD50 ([2]; human): >10 µg/mL

Question: With protohypericin as the compound, how does the “Activity against HCMV” value [1] read?
Answer: show activity; also recorded: good biological activity

Question: And the “Activity in initial screening against HCMV in vitro” value [1]?
Answer: active

Question: And the “Percent Inhibition of Plaque Numbers (Compared to Virus Controls)” value [1]?
Answer: 0%

Question: What about the CD50 ([2]; Example 2, cells exposed 6 or more days) of the same compound?
Answer: 5.6 µg/mL

Question: And the CD50 ([2]; Table 9 summary, two values = two experiments)?
Answer: 5.6 µg/mL

Question: With O=C1c2ccc(O)c(O)c2C(=O)c2c(O)ccc(O)c21 [Quinalizarin, quinalizarin] as the compound, how does the “Activity against HCMV” value [1] read?
Answer: definitely active; also recorded: show activity

Question: And the inhibition at 3.2 µg/mL ([1]; Human betaherpesvirus 5, AD169, MRC5, read-out: % Reduction)?
Answer: 100%

Question: What about the CD50 ([2]; human, 4 days) of the same compound?
Answer: >10 µg/mL

Question: What about the inhibition at 10 µg/mL ([3]; Human betaherpesvirus 5, MRC5, 96 h, read-out: Percent Inhibition Compared to Controls) of the same compound?
Answer: 98%

Question: And the inhibition at 0.01 µg/mL [3]?
Answer: 21%

Question: And the inhibition at 0.032 µg/mL [3]?
Answer: 44%

Question: What about the inhibition at 0.1 µg/mL [3] of the same compound?
Answer: 20%

Question: And the inhibition at 0.32 µg/mL [3]?
Answer: 0%

Question: What about the inhibition at 1 µg/mL [3] of the same compound?
Answer: 42%

Question: And the inhibition at 3.2 µg/mL [3]?
Answer: 88%
